This is an account of results in patent publication US9708314B2, “Heterocyclic amide compound” (NISSAN CHEMICAL INDUSTRIES, LTD., priority 2013, dated 2017).

Holding throughout (format): in vivo
One series deals with Zea mays. In words: Test Example 4: effect on crop by application to foliage (diluvial soil, plastic box). Particulars: Application herbicide amount 320 g/ha; for c (Zea mays) effect on crop grade: foliage application; for b: effect on crop. In outline:
(§1)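 Scores run from 0 (herbicidal ratio ≤5%) to 5 (≥90%, almost fully withered) and were assessed three weeks after foliar spraying. Seedlings had been raised for 14 days at 25-30° C in sterilized diluvial soil before treatment, with the emulsion diluted in water to the stated g/ha dose.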

The subject of series [1] is directly sowed Oryza sativa. The description is as above. Conditions: Application herbicide amount 320 g/ha; for d: effect on crop. In outline:
as §1

In series [2] the test system is Beta vulgaris ssp. vulgaris. Described as above. Particulars: Application herbicide amount 320 g/ha; for f (Beta vulgaris ssp. vulgaris) effect on crop grade: foliage application; for f: effect on crop. Put shortly: as §1
In a further series the test system is Glycine max. Described as above. Conditions: Application herbicide amount 320 g/ha; for d (Glycine max) effect on crop grade: foliage application; for c: effect on crop. Put shortly:
as §1

In the next series the test system is Brassica campestris L. Described as above. Particulars: Application herbicide amount 320 g/ha; for g (Brassica campestris L.) effect on crop grade: foliage application; for g: effect on crop. In outline: as §1
The next series has as its system Triticum aestivum. Described as above. Particulars: Application herbicide amount 320 g/ha; for e (Triticum aestivum) effect on crop grade: foliage application; for e: effect on crop. Put shortly: as §1
The test system of another series is Stellaria media. Description: Test Example 4: herbicidal effect by application to foliage (diluvial soil, plastic box). Conditions: Application herbicide amount 320 g/ha; foliage application. In outline:
as §1

Series [3] relates to transplanted Oryza sativa. In words: Test Example 1: effect on crop, application before weed generation in submerged conditions. Conditions: Application herbicide amount 320 g/ha; Seventeenth Table. Put shortly: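 Alluvial soil in Wagner pots flooded to 4 cm water depth; weed seeds sown and 2.5 leaf stage rice seedlings transplanted. Emulsion diluted in water applied to water surface on sowing day at stated g/ha. Greenhouse 25° C. to 30° C.; effects scored 0–5 by herbicidal ratio after three weeks.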

Series [4] relates to directly sowed Oryza sativa. In words: Test Example 3: effect on crop by application to foliage (Wagner pot, water depth 0.1-0.5 cm). Particulars: Nineteenth Table; application to foliage; application herbicide amount 320 g/ha. In outline: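 Greenhouse pot test, 25–30 °C, alluvial soil. Sown seedlings grown 14 days then sprayed on leaves and stems with emulsion diluted to target g/ha. Rating at 3 weeks, 0–5 scale (0 ≤5%, 5 ≥90%).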

As for `COc1ccc(Cc2nnc3c(C(=O)Nc4nnco4)ccc(C(F)(F)F)n23)cc1` [1-151], the “c (Zea mays) effect on crop grade” value with Zea mays is given as 0 (Herbicidal ratio of 5% or less (almost no effect)). In series [1] (foliage application), the “b (directly sowed Oryza sativa) effect on crop grade” value is 0 (Herbicidal ratio of 5% or less (almost no effect)). In addition, the “f (Beta vulgaris ssp. vulgaris) effect on crop grade” value in series [2] is given as 5 (Herbicidal ratio of 90% or more (almost completely withered)). Further, the “d (Glycine max) effect on crop grade” value in the series with Glycine max was 4 (Herbicidal ratio of 70% or more and less than 90%). For the same compound, in the series with Brassica campestris L., the “g (Brassica campestris L.) effect on crop grade” value is on record as 5 (Herbicidal ratio of 90% or more (almost completely withered)). For the same compound, in the series on Triticum aestivum, the “e (Triticum aestivum) effect on crop grade” value was 3 (Herbicidal ratio of 40% or more and less than 70%). In addition, in the series with Stellaria media, the “P (Stellaria media) herbicidal effect grade” value is on record as 5 (Herbicidal ratio of 90% or more (almost completely withered)). Also, in [3], the “a: transplanted Oryza sativa (effect on crop grade)” value (shortened to “a: transplanted Oryza sativa”) is on record as 0 (Herbicidal ratio of 5% or less (almost no effect)).
Turning to `COCCSc1nnc2c(C(=O)Nc3nnc(C)o3)ccc(C(F)(F)F)n12` [1-063], the b with Zea mays is reported as 0 (Herbicidal ratio of 5% or less (almost no effect)). Moreover, in series [1], the d is 4 (Herbicidal ratio of 70% or more and less than 90%). For the same compound, the f in series [2] is 5 (Herbicidal ratio of 90% or more (almost completely withered)). The c in the series with Glycine max was 3 (Herbicidal ratio of 40% or more and less than 70%). Also, in the series on Brassica campestris L., the g was 3 (Herbicidal ratio of 40% or more and less than 70%). In the series on Triticum aestivum, the e was 2 (Herbicidal ratio of 20% or more and less than 40%). Besides, in series [4], the “b (effect on crop grade)” value was 2 (Herbicidal ratio of 20% or more and less than 40%). For the same compound, in series [3], the “a: transplanted Oryza sativa” value is recorded as 0 (Herbicidal ratio of 5% or less (almost no effect)).
In the case of `C=CCSc1nnc2c(C(=O)Nc3nnc(C)o3)ccc(C(F)(F)F)n12` [1-064], the b with Zea mays is 0 (Herbicidal ratio of 5% or less (almost no effect)). Further, the d in [1] is 3 (Herbicidal ratio of 40% or more and less than 70%). Besides, the f in series [2] was 4 (Herbicidal ratio of 70% or more and less than 90%). Besides, the c with Glycine max is 0 (Herbicidal ratio of 5% or less (almost no effect)). Moreover, the g with Brassica campestris L. is 3 (Herbicidal ratio of 40% or more and less than 70%). Moreover, the e with Triticum aestivum is 0 (Herbicidal ratio of 5% or less (almost no effect)). Further, the “b (effect on crop grade)” value in series [4] was 2 (Herbicidal ratio of 20% or more and less than 40%). In addition, the “a: transplanted Oryza sativa” value in [3] was 0 (Herbicidal ratio of 5% or less (almost no effect)).
As to `Cc1nnc(NC(=O)c2ccc(C(F)(F)F)n3c(N(C)C(C)C)nnc23)o1` [1-132], the “c (Zea mays) effect on crop grade” value in the series with Zea mays is 2 (Herbicidal ratio of 20% or more and less than 40%). Besides, the “f (Beta vulgaris ssp. vulgaris) effect on crop grade” value in series [2] was 5 (Herbicidal ratio of 90% or more (almost completely withered)). Also, the “d (Glycine max) effect on crop grade” value in the series on Glycine max is 3 (Herbicidal ratio of 40% or more and less than 70%). For the same compound, in the series on Brassica campestris L., the “g (Brassica campestris L.) effect on crop grade” value is 4 (Herbicidal ratio of 70% or more and less than 90%). For the same compound, in the series with Triticum aestivum, the “e (Triticum aestivum) effect on crop grade” value was 1 (Herbicidal ratio of 5% or more and less than 20%). Besides, the “b (effect on crop grade)” value in [4] was 3 (Herbicidal ratio of 40% or more and less than 70%). Also, in series [3], the “a: transplanted Oryza sativa” value was 2 (Herbicidal ratio of 20% or more and less than 40%).
As for `Cc1nnc(NC(=O)c2ccc(C(F)(F)F)n3c(CC4CC4)nnc23)o1` [1-104], the b in the series on Zea mays is 0 (Herbicidal ratio of 5% or less (almost no effect)). In addition, the d in series [1] is 4 (Herbicidal ratio of 70% or more and less than 90%). Moreover, the f in series [2] is 4 (Herbicidal ratio of 70% or more and less than 90%). Moreover, the c in the series with Glycine max is 3 (Herbicidal ratio of 40% or more and less than 70%). In the series on Brassica campestris L., the g was 4 (Herbicidal ratio of 70% or more and less than 90%). The e in the series on Triticum aestivum was 2 (Herbicidal ratio of 20% or more and less than 40%). In addition, the “b (effect on crop grade)” value in series [4] is listed as 0 (Herbicidal ratio of 5% or less (almost no effect)). Further, the “a: transplanted Oryza sativa” value in series [3] is recorded as 0 (Herbicidal ratio of 5% or less (almost no effect)).
With `Cc1nnc(NC(=O)c2ccc(C(F)(F)F)n3c(-c4cc5ccccc5n4C)nnc23)o1` [1-059], in the series on Zea mays, the b is reported as 0 (Herbicidal ratio of 5% or less (almost no effect)). Besides, the d in series [1] was 0 (Herbicidal ratio of 5% or less (almost no effect)). In series [2], the f was 0 (Herbicidal ratio of 5% or less (almost no effect)). Also, the c in the series on Glycine max was 0 (Herbicidal ratio of 5% or less (almost no effect)). For the same compound, the g in the series with Brassica campestris L. is on record as 0 (Herbicidal ratio of 5% or less (almost no effect)). For the same compound, the e with Triticum aestivum is 0 (Herbicidal ratio of 5% or less (almost no effect)). Moreover, the “b (effect on crop grade)” value in [4] is reported as 0 (Herbicidal ratio of 5% or less (almost no effect)). Moreover, in [3], the “a: transplanted Oryza sativa” value is on record as 0 (Herbicidal ratio of 5% or less (almost no effect)).
As to `COCCOC(=O)Cc1nnc2c(C(=O)Nc3nnc(C)o3)ccc(C(F)(F)F)n12` [1-060], the b with Zea mays is 3 (Herbicidal ratio of 40% or more and less than 70%). Besides, the d in [1] is 4 (Herbicidal ratio of 70% or more and less than 90%). Moreover, in [2], the f is 5 (Herbicidal ratio of 90% or more (almost completely withered)). Besides, the c with Glycine max was 0 (Herbicidal ratio of 5% or less (almost no effect)). The g in the series with Brassica campestris L. was 4 (Herbicidal ratio of 70% or more and less than 90%). In the series with Triticum aestivum, the e was 3 (Herbicidal ratio of 40% or more and less than 70%). In series [4], the “b (effect on crop grade)” value was 2 (Herbicidal ratio of 20% or more and less than 40%). Further, the “a: transplanted Oryza sativa” value in [3] is 2 (Herbicidal ratio of 20% or more and less than 40%).
For the compound `CN(C)c1nnc2c(C(=O)Nc3nnco3)ccc(C(F)(F)F)n12` [1-103], the b with Zea mays was 1 (Herbicidal ratio of 5% or more and less than 20%). Besides, the d in [1] is 4 (Herbicidal ratio of 70% or more and less than 90%). Besides, in series [2], the f is reported as 5 (Herbicidal ratio of 90% or more (almost completely withered)). The c in the series on Glycine max is 2 (Herbicidal ratio of 20% or more and less than 40%). For the same compound, in the series on Brassica campestris L., the g is 5 (Herbicidal ratio of 90% or more (almost completely withered)). The e in the series with Triticum aestivum was 3 (Herbicidal ratio of 40% or more and less than 70%). In addition, the “b (effect on crop grade)” value in series [4] is 4 (Herbicidal ratio of 70% or more and less than 90%). The “a: transplanted Oryza sativa” value in series [3] is 3 (Herbicidal ratio of 40% or more and less than 70%).
As to `CC(=O)OCc1nnc2c(C(=O)Nc3nnc(C)o3)ccc(C(F)(F)F)n12` [1-062], the b with Zea mays is 3 (Herbicidal ratio of 40% or more and less than 70%). In series [1], the d was 3 (Herbicidal ratio of 40% or more and less than 70%). Also, the f in series [2] was 4 (Herbicidal ratio of 70% or more and less than 90%). Also, the c with Glycine max is 0 (Herbicidal ratio of 5% or less (almost no effect)). Moreover, in the series on Brassica campestris L., the g was 4 (Herbicidal ratio of 70% or more and less than 90%). Further, the e in the series with Triticum aestivum is 2 (Herbicidal ratio of 20% or more and less than 40%). The “b (effect on crop grade)” value in [4] is 2 (Herbicidal ratio of 20% or more and less than 40%). Moreover, in series [3], the “a: transplanted Oryza sativa” value is 0 (Herbicidal ratio of 5% or less (almost no effect)).
